The target in test [1] is T1, DPP-IV obtained from pig kidney (Sus scrofa, UniProt P22411).
T1 construct: DPP-IV obtained from pig kidney; from tissue; host or cells: pig kidney
The test can be described thus: Measurement of DPPIV-inhibiting activity (in vitro experiment). To be noted: DPP-IV from pig kidney 10 mU/mL, substrate Gly-Pro-p-nitroanilide 0.33 mM, 20 min preincubation, 20 min reaction, absorbance 405 nm. It counts as biochemical. The protocol: DPP-IV obtained from pig kidney was dissolved in a reaction buffer (50 mM Tris-HCl pH7.4, 0.1% BSA) at 10 mU/mL, and 110 μL of this was used. 15 μL of the drug obtained from the aforementioned Examples was added, and this was incubated at room temperature for 20 minutes, and then 25 μL of a 2 mM solution of Gly-Pro-p-nitroanilide (final concentration 0.33 mM) was added to start the enzymatic reaction. The reaction time was 20 minutes, and 1 N phosphoric acid solution (25 μL) was added to stop the reaction.

Test [2] relates to normal mice (male C57BL/6N). Nature of the test: Effects on glucose tolerance in normal mice (in vivo experiment). As to conditions: 1 mg/kg oral, 30 min before oral glucose 2 g/kg; blood glucose AUC0-120; 0.5% MC group = 100%, NVP DPP728 (10 mg/kg) group = 0%; lower = better. The method, then: Animals: Male C57BL/6N mice (purchased from Japan Charles River) The test compounds were suspended in a 0.5% methylcellulose (MC) solution at the doses indicated below in Table 2. These test compounds and the NVP DPP728 (U.S. Pat. No. 6,011,155) suspension, or the 0.5% MC solution (the solvent control group), were administered orally at a dose of 10 mL/kg. 30 minutes later, a glucose solution was orally administered at a dose of 10 mL/kg. Glucose was orally administered at a dose of 2 g/kg. The tail vain of unanesthetized mice was cut with a razor blade to cause a small amount of bleeding immediately before administering the test substances or NVP DPP728, and immediately before, as well as 30, 60, and 120 minutes after, administration of the glucose solution. 10 μL of blood was collected, and this was mixed immediately with 0.6 M perchloric acid (140 μL). Glucose present in the supernatant obtained by centrifugation (1500 g, 10 minutes, 4° C., refrigerated centrifuge GS-6KR, Beckman) was measured using Glucose CII Test Wako (Wako Pure Chemicals). Results: In each of the groups to which 0.5% MC solution, NVP DPP728, and the test compounds were administered, the area under the curve of blood glucose vs. time was calculated over 0 to 120 minutes from the time of glucose administration (AUC0-120). Defining the AUC0-120 for the 0.5% MC solution-administered group as 100%, and the AUC0-120 for the NVP DPP728 (10 mg/kg)-administered group as 0%, the degree of improvement in glucose tolerance due to the test compound was calculated by the following equation: Degree of improvement in glucose tolerance (%)=(AUC0-120 of the test compound−AUC0-120 of the NVP DPP728 (10 mg/kg)-administered group)/(AUC0-120 of the 0.5% MC solution-administered group−AUC0-120 of the NVP DPP728 (10 mg/kg)-administered group)×100 The lower the % value, the better the degree of improvement in glucose tolerance.

As a reminder, the IC50 is the concentration that inhibits the measured activity by half.

T1 sequence (P22411 whole entry): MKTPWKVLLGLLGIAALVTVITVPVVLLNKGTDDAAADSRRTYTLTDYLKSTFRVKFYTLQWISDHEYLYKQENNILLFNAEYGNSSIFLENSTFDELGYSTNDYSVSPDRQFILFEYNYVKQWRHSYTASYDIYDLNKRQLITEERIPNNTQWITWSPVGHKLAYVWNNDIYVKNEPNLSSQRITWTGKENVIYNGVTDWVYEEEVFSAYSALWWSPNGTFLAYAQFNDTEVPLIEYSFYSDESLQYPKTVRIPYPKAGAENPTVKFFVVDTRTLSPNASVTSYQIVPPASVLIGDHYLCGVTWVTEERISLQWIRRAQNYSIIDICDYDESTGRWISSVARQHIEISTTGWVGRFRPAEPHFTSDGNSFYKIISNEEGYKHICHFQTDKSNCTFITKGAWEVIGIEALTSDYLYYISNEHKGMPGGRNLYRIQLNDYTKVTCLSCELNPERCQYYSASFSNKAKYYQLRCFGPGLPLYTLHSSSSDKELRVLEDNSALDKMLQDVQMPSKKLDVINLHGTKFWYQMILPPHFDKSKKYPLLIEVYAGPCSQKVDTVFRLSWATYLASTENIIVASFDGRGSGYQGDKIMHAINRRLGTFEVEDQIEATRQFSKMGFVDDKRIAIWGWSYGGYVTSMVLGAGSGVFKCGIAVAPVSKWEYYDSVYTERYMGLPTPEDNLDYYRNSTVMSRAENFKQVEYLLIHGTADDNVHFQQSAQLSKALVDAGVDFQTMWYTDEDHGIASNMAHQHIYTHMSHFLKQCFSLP

On to `CC#CCn1c(=O)n(-c2cccnc2)c2nc(Cl)nc(N3CCNCC3)c21.O=C(O)C(F)(F)F` [Example 46, 7-(2-Butynyl)-2-chloro-6-(piperazin-1-yl)-9-(pyridin-3-yl)-7,9-dihydropurin-8-one trifluoroacetic acid salt], for which the IC50 in test [1] was 42.6 nM. The “Degree of improvement in glucose tolerance (%)” value (from here on “Degree of improvement … (%)”) in test [2] is 37%.

Consider `C=CCn1c(=O)n(CC#CC)c2c(N3CCNCC3)ncnc21.O=C(O)C(F)(F)F` [Example 69, 9-Allyl-7-(2-butynyl)-6-(piperazin-1-yl)-7,9-dihydropurin-8-one trifluoroacetic acid salt], for which, in test [1], the IC50 worked out at 224 nM. Moreover, the “Degree of improvement … (%)” value in test [2] was found to be 44.1%.

As for `CC#CCn1c(=O)n(C)c2nc(OC)nc(N3CCNCC3)c21.O=C(O)C(F)(F)F` [Example 1, 7-(2-Butynyl)-2-methoxy-9-methyl-6-(piperazin-1-yl)-7,9-dihydropurin-8-one trifluoroacetic acid salt], half-maximal inhibition in test [1] (IC50) required 240 nM. Besides, the “Degree of improvement … (%)” value in test [2] is listed as 19.8%.

In test [1], `CC#CCn1c(=O)n(C)c2nc(OC(C)C)nc(N3CCNCC3)c21.O=C(O)C(F)(F)F` [Example 7, 7-(2-Butynyl)-2-isopropoxy-9-methyl-6-(piperazin-1-yl)-7,9-dihydropurin-8-one trifluoroacetic acid salt] gave an IC50 of 199 nM. In addition, in test [2], the “Degree of improvement … (%)” value is listed as 19.8%.

Molecule `CC#CCn1c(=O)n(-c2cnc(OC)nc2)c2ncnc(N3CCNCC3)c21.O=C(O)C(F)(F)F` [Example 64, 7-(2-Butynyl)-9-(2-methoxy-pyrimidin-5-yl)-6-(piperazin-1-yl)-7,9-dihydropurin-8-one trifluoroacetic acid salt] returned a half-maximal inhibitory concentration (IC50) in test [1] of 32.5 nM. For the same molecule, the “Degree of improvement … (%)” value in test [2] is −11.4%.

In test [1], `CC#CCn1c(=O)n(-c2cccnc2)c2ncnc(N3CCNCC3)c21.O=C(O)C(F)(F)F` [Example 61, 7-(2-Butynyl)-6-(piperazin-1-yl)-9-(pyridin-3-yl)-7,9-dihydropurin-8-one trifluoroacetic acid salt] returned a half-maximal inhibitory concentration (IC50) of 61.9 nM. Also, in test [2], the “Degree of improvement … (%)” value was 9.4%.

Consider `CC#CCn1c(=O)n(-c2ccnc(Cl)c2)c2ncnc(N3CCNCC3)c21.O=C(O)C(F)(F)F` [Example 65, 7-(2-Butynyl)-9-(2-chloro-pyridin-4-yl)-6-(piperazin-1-yl)-7,9-dihydropurin-8-one trifluoroacetic acid salt], for which 16.7 nM corresponded to half-maximal inhibition in test [1] (IC50). The “Degree of improvement … (%)” value in test [2] is 9.5%.

With `CC#CCn1c(=O)n(-c2ccccc2)c2nc(OC)nc(N3CCNCC3)c21.O=C(O)C(F)(F)F` [Example 54, 7-(2-Butynyl)-2-methoxy-9-phenyl-6-(piperazin-1-yl)-7,9-dihydropurin-8-one trifluoroacetic acid salt], the half-inhibitory concentration (IC50) in test [1] worked out at 88.8 nM. In addition, in test [2], the “Degree of improvement … (%)” value turned out to be 24.4%.

Consider `CC#CCn1c(=O)n(-c2ccoc2)c2nc(OC)nc(N3CCNCC3)c21.O=C(O)C(F)(F)F` [Example 56, 7-(2-Butynyl)-9-(furan-3-yl)-2-methoxy-6-(piperazin-1-yl)-7,9-dihydropurin-8-one trifluoroacetic acid salt], for which the midpoint of inhibition in test [1], the IC50, lay at 96.4 nM. Moreover, the “Degree of improvement … (%)” value in test [2] worked out at 11.3%.

In test [1], `C=CCOc1nc(N2CCNCC2)c2c(n1)n(C)c(=O)n2CC#CC.O=C(O)C(F)(F)F` [Example 15, 2-Allyloxy-7-(2-butynyl)-9-methyl-6-(piperazin-1-yl)-7,9-dihydropurin-8-one trifluoroacetic acid salt] yielded an IC50 of 319 nM. In addition, in test [2], the “Degree of improvement … (%)” value turned out to be 46%.

`CC#CCn1c(=O)n(C)c2nc(Oc3ccccc3C#N)nc(N3CCNCC3)c21.O=C(O)C(F)(F)F` [Example 13, 2-[7-(2-Butynyl)-9-methyl-8-oxo-6-(piperazin-1-yl)-8,9-dihydro-7H-purin-2-yloxy]benzonitrile trifluoroacetic acid salt] had an IC50 in test [1] of 24.7 nM. Also, the “Degree of improvement … (%)” value in test [2] was 33.5%.

In test [1], `CC#CCn1c(=O)n(CC#CC)c2c(N3CCNCC3)nc(OC)nc21.O=C(O)C(F)(F)F` [Example 48, 7,9-Di-(2-butynyl)-2-methoxy-6-(piperazin-1-yl)-7,9-dihydropurin-8-one trifluoroacetic acid salt] gave an IC50 of 71.6 nM. Besides, the “Degree of improvement … (%)” value in test [2] stood at 37.4%.

In test [1], `CC#CCn1c(=O)n(CCC)c2nc(OC)nc(N3CCNCC3)c21.O=C(O)C(F)(F)F` [Example 52, 7-(2-Butynyl)-2-methoxy-6-(piperazin-1-yl)-9-propyl-7,9-dihydropurin-8-one trifluoroacetic acid salt] displayed an IC50 of 175 nM. Besides, the “Degree of improvement … (%)” value in test [2] was determined as 29.7%.

In turn, `CC#CCn1c(=O)n(C)c2nc(OCC)nc(N3CCNCC3)c21.O=C(O)C(F)(F)F` [Example 10, 7-(2-Butynyl)-2-ethoxy-9-methyl-6-(piperazin-1-yl)-7,9-dihydropurin-8-one trifluoroacetic acid salt] had an IC50 in test [1] of 251 nM. In addition, the “Degree of improvement … (%)” value in test [2] is on record as 17.3%.

For the molecule `C=CCn1c(=O)n(CC#CC)c2c(N3CCNCC3)nc(OC)nc21.O=C(O)C(F)(F)F` [Example 47, 9-Allyl-7-(2-butynyl)-2-methoxy-6-(piperazin-1-yl)-7,9-dihydropurin-8-one trifluoroacetic acid salt], in test [1], it took 167 nM to reach half-maximal inhibition (IC50). Moreover, in test [2], the “Degree of improvement … (%)” value was found to be 11.6%.

`CC#CCn1c(=O)n(CC2CC2)c2nc(OC)nc(N3CCNCC3)c21.O=C(O)C(F)(F)F` [Example 51, 7-(2-Butynyl)-9-cyclopropylmethyl-2-methoxy-6-(piperazin-1-yl)-7,9-dihydropurin-8-one trifluoroacetic acid salt] returned an IC50 in test [1] of 130 nM. Moreover, the “Degree of improvement … (%)” value in test [2] is given as 59.3%.
